We go through 4 molecules from publication PMC2579677 (British Journal of Cancer, 2008).

The subject of data set [1] is bFGF-stimulated angiogenesis in Matrigel plugs. Also on record: method as in Chander et al, 2007. Conditions: ref Chander et al, 2007, cited from earlier work.
For data set [2] the following is noted: cited from earlier work.
For data set [3], the system named is MDA-MB-231 xenograft tumours. Nature of the data set: MDA-MB-231 xenograft tumour growth inhibition. The conditions noted are these: 21 days.
The subject of data set [4] is bFGF-stimulated angiogenesis in Matrigel plugs. Nature of the data set: In vivo angiogenesis assay (bFGF-supplemented Matrigel plug, FITC-dextran). Set-up: species or system C57BL/6J mice. Conditions: for reduction of level of angiogenesis: 10 mg kg^−1 orally daily for four days, compared with bFGF-only. On the procedure: The antiangiogenic potential of STX243 was assessed using a modified Matrigel plug assay as described earlier ([Passaniti et al, 1992]; [Prewett et al, 1999]; [Chander et al, 2007]). The female C57BL/6J mice used in this study were obtained from Harlan (Bicester). The mice were anaesthetised, placed on a heated pad (37°C) and 0.5 ml of ice-cold Matrigel supplemented with 500 ng of basic fibroblast growth factor (bFGF) was injected subcutaneously into the flanks of each mouse. Control mice received Matrigel without bFGF. The mice were subsequently weighed before returning the mice to their isolator. After 24 h of Matrigel injection, the mice were placed into the following treatment groups: control, bFGF-only, bFGF plus STX140 (10 mg kg^−1, orally) and bFGF plus STX243 (10, 20 or 40 mg kg^−1, orally). Control and bFGF-only animals were dosed orally with vehicle (10% THF, 90% PG). The animals were dosed every day for four days with five animals per treatment group. Quantification of the blood vessels within the Matrigel plugs was facilitated through the intravenous injection of 100 μl of 0.25 mg ml^−1 FITC-dextran (250 000 molecular weight) seven days after the Matrigel injection. FITC-dextran injection allows for visualisation of the blood vessels that has been recently formed in the matrigel plugs. The animals were killed 20 min after the injection of the FITC-dextran. The mice were subsequently weighed and the Matrigel plugs were removed. The Matrigel plugs were photographed and subsequently dissolved in 1 ml Dispase reagent for 16 h at 37°C. The resulting mixture was centrifuged at 15 700 g (20°C) for 30 s. The fluorescence of the supernatant was measured using a FLUOstar OPTIMA fluorimeter (BMG Labtech Ltd., Aylesbury, Bucks, UK). The excitation and emission wavelengths used were 480 and 520 nm, respectively. The fluorescence of the samples was quantitated using a standard curve of FITC-dextran (0.4–25 μg ml^−1).

Data set [5] concerns MCF-7dox40 xenograft tumours. Set-up: method as in Newman et al, 2008. Conditions: ref Newman et al, 2008; cited from earlier work.
On the set-up of data set [6]: method as in Foster et al, 2008. The conditions noted are these: single oral administration; ref Foster et al, 2008; cited from earlier work.
For data set [7], the system named is human umbilical vein endothelial cell (HUVEC). Also on record: method as in Newman et al, 2004. Conditions: ref Newman et al, 2004; cited from earlier work.
For another data set, the system named is range of cell lines. Conditions: 2003, 2005, cited from earlier work; for difference in antiproliferative activity relative to 2-MeOE2: some investigations, ref Day et al, Wood et al, 2004, Leese et al.
The subject of the next data set is HUVECs. Nature of the data set: In vitro angiogenesis kit: VEGF-stimulated vessel formation in HUVEC/fibroblast coculture. The data set is classed as cell-based, human. The conditions noted are these: VEGF 2 ng ml^−1 stimulated, day 11. How it is done: The effects of the compounds on in vitro vessel formation were assessed using an angiogenesis kit (TCS Cellworks, Claydon, UK). For this assay, HUVECs (obtained from TCS Cellworks) were cultured in a 24-well plate within a matrix of human diploid fibroblasts of dermal origin in an optimised medium (TCS Cellworks) supplemented with 2 ng ml^−1 vascular endothelial growth factor (VEGF). The cocultured cells were incubated throughout the experiment at 37°C under 5% CO2 in a humidified incubator. On day 1, the culture medium was removed and replaced with medium containing the compounds under investigation. The vehicle used for the dilution of compound was tetrahydrofuran (THF). The final concentration of THF in the medium was 0.001 (100 nM dose) to 0.00025% (25 nM dose). On days 4, 7 and 9, the medium was replaced with fresh medium containing the compounds. Each compound was tested in triplicate. On day 11, the cells were washed (phosphate-buffered saline) and 70% ethanol (1 ml) was added to each well for 30 min to fix the cells. After fixation, the cells were washed with blocking buffer (1 ml, phosphate-buffered saline+1% bovine serum albumin) and stained for CD31 according to the manufacturer's instructions (TCS Cellworks).
The extent of vessel formation was then quantified using a variation of an earlier described technique ([Newman et al, 2004]). Briefly, using a high-resolution transmissive scanner (ScanMaker 9800, Microtek, Willich, Germany), each well was scanned and saved as a tagged image format (TIF) file in Photoshop (Adobe, San Jose, CA, USA). The image was then converted to a black and white image using the photocopy filter in Photoshop ( × 2, 10 detail and 25 darkness) and saved as an uncompressed TIF file. The files were transferred to the AngioSys software (TCS Cellworks), all background and non-tubule-like structures were removed using erode ( × 1) and clean (100 pixels) functions, and the number of pixels representing vessels was counted. This technique was validated (data not shown) against the quantification techniques as described earlier ([Newman et al, 2004]).

For data set [8], the system named is MCF-7wt xenograft tumours. Nature of the data set: MCF-7wt xenograft tumour growth inhibition. It counts as in vivo, MF-1 nu/nu mice. Conditions: 28 days, compared with vehicle-only.
Data set [9] has as its system MCF-7dox40 xenograft tumours. Nature of the data set: Paclitaxel-resistant MCF-7dox40 xenograft tumour growth inhibition. It counts as in vivo, MF-1 nu/nu mice. The conditions noted are these: 28 days.
Data set [10] can be described thus: Pharmacokinetics of STX243 in plasma (HPLC). The data set is classed as in vivo, female Wistar rats. Conditions: for clearance / MRT / Vd / half-life / Cmax: female, Wistar; for clearance / MRT / Vd / half-life: rat, plasma; for clearance: read-out: Cl (total body clearance) (converted); for MRT: read-out: MRT (mean residence time); for Vd: read-out: VD (volume of distribution); for half-life: read-out: t1/2β (elimination half-life) (converted).

[11] abbreviates: 40 mg kg^−1 orally daily, compared with vehicle-only.

Each structure is given as a SMILES string. “And” between values parts separate entries of the source, which are not always exact repeats. Equal values may be shown once. Read-outs that look alike come from different tables or passages of the source.

As for `COc1cc2c(cc1O)CC[C@@H]1[C@@H]2CC[C@]2(C)[C@@H](O)CC[C@@H]12` [2-MeOE2, 2-methoxyoestradiol, reference compound], the “angiogenesis inhibition in Matrigel plugs” value in data set [1] (10 mg kg^−1 dose) is reported as “no significant inhibition”; in data set [1] (50 mg kg^−1 orally) it was “Angiogenesis inhibition was only observed”. Also, in [2] (10 mg kg^−1 intravenous, HPLC, ref Ireson et al, 2004), the “plasma concentration 1 h after intravenous dosing” value is “below the LOD”. Besides, the tumour growth inhibition result in data set [3] (setting [11]) and in data set [3] (75 mg kg^−1 orally daily) was “No significant tumour inhibition” in each case.
Turning to `COc1cc2c(cc1OS(N)(=O)=O)CCC1C2CC[C@@]2(C)C1CC[C@@H]2OS(N)(=O)=O` (stereo partly drawn) [STX140, 2-MeOE2-3,17-O,O-bis-sulphamate], in [4], the “reduction of level of angiogenesis” value was 72% and 72±5%. For the same molecule, the “inhibition of growth of MCF-7dox40 tumours” value in [5] was “capable of inhibiting the growth of MCF-7dox40 tumours”. Also, in [6], the maximum-tolerated dose was 150 mg/kg. Moreover, the “effectiveness at inhibiting HUVEC proliferation relative to 2-MeOE2” value in data set [7] is on record as 60 fold. In addition, the “difference in antiproliferative activity relative to 2-MeOE2” value in the data set on range of cell lines is recorded as 10 fold. The “maximum concentration in plasma” value in data set [2] (rat, in vivo, iv) is 6.6 µg/mL. The oral bioavailability in data set [2] (rat, in vivo, po, 10 mg/kg) is 85%. In data set [2] (rat, in vivo, po), the “maximum concentration in plasma” value is 3.9 µg/mL and the “time of peak plasma concentration” value is reported as 3 h. In addition, the tumour growth inhibition in [3] (20 mg kg^−1 orally daily, compared with vehicle-only) was 63% and 63±7%.
Regarding `CCc1cc2c(cc1OS(N)(=O)=O)CCC1C2CC[C@@]2(C)C1CC[C@@H]2OS(N)(=O)=O` (stereo partly drawn) [STX243, 2-ethyloestradiol-3,17-O,O-bis-sulphamate], the vessel formation entry with HUVECs (25 nM) is “only a small inhibition”; in the data set on HUVECs (50 nM) it was “significant inhibition of vessel formation”. Further, in the data set with HUVECs (100 nM), the “vessel (tubule) formation” value is “completely blocked all tubule formation”. In addition, the tumour growth inhibition is 87±5% in data set [8] (40 mg kg^−1 orally daily); 74±4% in data set [9] (setting [11]); 72% and 72±13% in data set [3] (setting [11]). The “reduction of level of angiogenesis” value in data set [4] is 50% and 50±6%. Besides, the “growth of new blood vessels in Matrigel plugs” value in [4] (all doses investigated (10, 20 or 40 mg kg^−1 orally), P<0.001 vs bFGF-only) is given as “significantly inhibited”. Besides, the AUC in data set [10] (Intravenous 10 mg kg^−1) worked out at 42 hμg ml^−1; in [10] (Intravenous 40 mg kg^−1), 126 hμg ml^−1; in [10] (Oral 10 mg kg^−1) it was 13 hμg ml^−1; in data set [10] (Oral 40 mg kg^−1), 23 hμg ml^−1. Further, the AUMC was determined as 267 h^2μg ml^−1 in data set [10] (Intravenous 10 mg kg^−1), 558 h^2μg ml^−1 in [10] (Intravenous 40 mg kg^−1), 219 h^2μg ml^−1 in data set [10] (Oral 10 mg kg^−1) and 157 h^2μg ml^−1 in [10] (Oral 40 mg kg^−1). Besides, the “Bioavailability (% F)” value in data set [10] (Oral 10 mg kg^−1) is 31 % F and 30.7 % F; in data set [10] (Oral 40 mg kg^−1), 18 % F. In addition, the “time of highest plasma concentration” value came out at 4 h in data set [10] (Oral 10 mg kg^−1) and 8 h in data set [10] (Oral 40 mg kg^−1). The clearance in data set [10] (Intravenous 10 mg kg^−1) is 3.92 mL/min/kg; in data set [10] (Intravenous 40 mg kg^−1), 5.3 mL/min/kg. For the same molecule, the MRT amounted to 6.28 h in [10] (Intravenous 10 mg kg^−1), 4.44 h in data set [10] (Intravenous 40 mg kg^−1), 16.8 h in [10] (Oral 10 mg kg^−1) and 6.93 h in data set [10] (Oral 40 mg kg^−1). In addition, the Vd came out at 1.48 L/kg in data set [10] (Intravenous 10 mg kg^−1) and 1.41 L/kg in [10] (Intravenous 40 mg kg^−1). For the same molecule, the half-life in data set [10] (Intravenous 10 mg kg^−1) is 4.78 h; in data set [10] (Intravenous 40 mg kg^−1) it was 3.18 h; in data set [10] (Oral 10 mg kg^−1), 11.4 h; in data set [10] (Oral 40 mg kg^−1), 1.88 h. In addition, the maximum concentration (Cmax) is 13100 ng/mL in data set [10] (Intravenous 10 mg kg^−1, rat plasma); 44800 ng/mL in data set [10] (Intravenous 40 mg kg^−1, rat plasma); 640 ng/mL in data set [10] (Oral 10 mg kg^−1, rat plasma); 1760 ng/mL in data set [10] (Oral 40 mg kg^−1, rat plasma). Also, the “metabolism (to putative metabolite STX1813) in plasma” value in [10] (intravenous or oral, 10 or 40 mg kg^−1, HPLC) was “no significant metabolism”. The maximum-tolerated dose in data set [6] is 300 mg/kg. Also, in the data set with range of cell lines (range of cell lines, ref Suzuki et al, Raobaikady et al), the “potency at inhibiting cell proliferation relative to STX140” value was “equipotent to STX140”. In addition, in the data set with range of cell lines, the “difference in antiproliferative activity relative to 2-MeOE2” value was 10 fold.
In the case of `CC(=O)O[C@H]1C(=O)[C@@]2(C)[C@H]([C@H](OC(=O)c3ccccc3)[C@]3(O)C[C@H](OC(=O)[C@H](O)[C@@H](NC(=O)c4ccccc4)c4ccccc4)C(C)=C1C3(C)C)[C@]1(OC(C)=O)CO[C@@H]1C[C@@H]2O` [paclitaxel, reference compound], the tumour growth inhibition was 87±6% in data set [8] (15 mg kg^−1 intravenous weekly) and “only STX243 was capable of significantly inhibiting the growth” in data set [9] (15 mg kg^−1 intravenous weekly).

In general, clearance refers to the volume of plasma or blood freed of the substance per unit of time. The MRT is a mean duration of stay, worked out from the concentration-time curve. In general, Vd refers to the apparent volume that relates the amount in the body to the concentration in plasma or blood. As usually defined, the Cmax is the peak of the concentration-time curve.
